Tests used:
poults (turkeys) = experiment: Turkey grow out in 20,000 Ft^2 poultry house; type: in vivo
Description: (§1) The present invention is illustrated by the following Examples however, these Examples are not to be construed as limiting the invention.
4. (Prior art) a poultry house was prepared by cleaning out the used animal bedding (shaved wood chips). The poultry house was then sprayed with a maximum formulation of formaldehyde. After a 72 hour drying period, new shaved wood chips were spread in the poultry house and stocked with 15,000 thousand poults (turkeys). The temperature of the house was maintained at 74°% F±4 degrees F. for the term of the grow out. The term of the grow out was 100 days, average moisture content in the bedding was maintained below 14%. Average relative humidity in the house atmosphere ranged from 40% to 84%.
After two to three weeks, 200 pounds of alum (or aluminum sulfate) was spread evenly on top of the shaved wood chips and dispersed throughout.
5. A poultry house was prepared by spraying all house surfaces (ceiling, walls, and padding/floor) with a solution of 2 pounds of 18.7% formulated TCM per 300 gallons of water. The concentration of the TCM for the washdown was 200 ppm. 12,000 young poults (turkeys) were then placed in the poultry house for a 100-day grow out. The average temperature of the house was maintained at 78° F.±4 degrees for the term of the grow out. The bedding material used was shaved wood chips. Average moisture content in the bedding was maintained below 14%. Average humidity in the house atmosphere ranged from 40% to 68%. The term of the grow out was 100 days.
6. A poultry house was prepared by spraying all house surfaces (ceiling, walls, and padding) after a complete cleanout of previous used wood shavings and manure, with a solution of 2 pounds of 18.7% TCM formulation to 300 gallons of water. The concentration of TCM for the washdown was 200 ppm. 6000 young poults (turkeys) were placed on 3 tons of fresh shaved wood chips in the poultry house. A direct spray-on application of the TCM formulation was sprayed on the new wood shavings and allowed to dry. The solution consisted of 1 pound of formulated TCM to 125 gallons of water or 100 ppm. The average temperature inside the poultry house was maintained at 80 degrees±4 degrees F. for the term of the grow out. Average moisture content in the bedding was maintained below 14%. Average relative humidity in the house atmosphere ranged from 50% to 85%. The term of the grow out was 100 days. The poultry house was retreated via a direct spray-on of the formulated TCM was applied to the bedding material at week 10 of the grow out period for the same batch of turkey poults. The concentration of the TCM in solution was 1 pound of formulated TCM per 125 gallons of water.

chickens = experiment: Chicken grow out in 20,000 Ft^2 poultry house; type: in vivo
Description: as §1
3. (Prior art) A poultry house was prepared by cleaning out the used animal bedding (shaved wood chips) The poultry house was then sprayed with a maximum formulation of formaldehyde. After a 72 hour drying period new shaved wood chips were spread in the poultry house and stocked with 19,000 thousand chickens, temperature of the house was maintained at 74% F±4 degrees F. for the term of the grow out. The terms of the grow out was 45 days, average moisture content in the bedding was maintained below 14%. Average relative humidity in the house atmosphere ranged from 40% to 84%.
After two weeks, 200 pounds of alum (aluminum sulfate) was spread evenly on top of the shaved wood chips and dispersed throughout.
7. A poultry house was prepared by using used bedding material. The used animal bedding (shaved wood chips) and manure had been in use for 18 months without removal. A direct spray on application consisting of a solution of one pound of TCM per 125 gallons of water or 100 ppm was sprayed on top of the used animal bedding. 19,000 young chickens were placed in the poultry house. The average temperature of the house was maintained at 78 degrees F. for the term of the grow out. Average moisture content in the bedding was maintained below 14%. The term of the grow out was 39 days.

salmonella = experiment: Feces sample from animal bedding tested for salmonella by independent laboratory; conditions: Example 8: 190 ppm TCM washdown; 16,000 poults; feces sample at eight weeks
Description: (§2) 8. A turkey house was prepared by spraying all surfaces with a solution of TCM. New wood chip bedding was then applied. The concentration was 10 pounds of TCM in 1,600 gallons of water or 190 ppm., 16,000 young poults (turkeys) were then placed in the poultry house for a 100 day grow out.
(§3) The purpose of this application was to compare e.Coli and salmonella results in a controlled environment as an alternative to formaldehyde, the current sanitizing method used by the poultry industry. At eight weeks of the grow out period after the wash down and the placement of the young poults, a feces sample was acquired from the animal bedding to determine disease levels from both the test poultry house and the control poultry house of Example 1. An independent laboratory tested the two samples.

[1] = tested on: hog waste total bacterial content; experiment: Percent kill in hog waste mixed with TCM solutions; type: cell-based
Description: 9. Test were conducted on hog waste, 3 gallons of hog waste feces, urine and spillage were prepared. […] Various solution samples of TCM solutions were prepared and mixed with the 3 gallon samples. The percent kill of these various samples was in accordance with Table III.

Other avian diseases = experiment: Feces sample from animal bedding tested for other avian diseases; conditions: Example 8: 190 ppm TCM washdown; feces sample at eight weeks
Description: as §2, §3

e.Coli = experiment: Feces sample from animal bedding tested for e.Coli by independent laboratory; conditions: Example 8: 190 ppm TCM washdown; 16,000 poults; feces sample at eight weeks
Description: as §2, §3

[2] = Example 4 (prior art): formaldehyde spray, new wood chips, 200 pounds of alum after two to three weeks, 15,000 poults, 100 days
[3] = Example 3 (prior art): formaldehyde spray, new wood chips, 200 pounds of alum after two weeks, 19,000 chickens, 45 days
[4] = Example 5: house surfaces sprayed with 200 ppm TCM, 12,000 poults, 100-day grow out
[5] = Example 6: 200 ppm TCM washdown, 100 ppm spray on new wood shavings, retreated at week 10, 6000 poults, 100 days
[6] = Example 7: 100 ppm TCM sprayed on 18 month used bedding, 19,000 chickens, 39 days

C=O [formaldehyde, reference compound]
average weight gain for the turkeys (poults (turkeys); [2]): 21.8 pounds
bird mortality rate (poults (turkeys); [2]): 8.1%
birds condemned at the processing facility (poults (turkeys); [2]): 2.3%
average weight gain for the chickens (chickens; [3]): 3.96 pounds
bird mortality rate (chickens; [3]): 3.56%
percentage of birds condemned at the processing facility (chickens; [3]): 0.15%

trichloromelamine [TCM]
salmonella in the animal bedding material (salmonella): no e.Coli or salmonella
PERCENT KILL ([1]; 0.25 oz. in 3 gallons of hog waste): 99.997%
PERCENT KILL ([1]; 0.50 oz. in 3 gallons of hog waste): 99.9995%
PERCENT KILL ([1]; 0.75 oz. in 3 gallons of hog waste): 99.998%
PERCENT KILL ([1]; 1.0 oz. in 3 gallons of hog waste): 99.9998%
PERCENT KILL ([1]; 2.0 oz. in 3 gallons of hog waste): 99.9996%
PERCENT KILL ([1]; 3.0 oz. in 3 gallons of hog waste): >99.9998%
PERCENT KILL ([1]; 4.0 oz. in 3 gallons of hog waste): >99.9998%
bird mortality (poults (turkeys); [4]): 2.7%
birds condemned at the processing facility (poults (turkeys); [4]): 1.7%
weight gain for the turkeys (poults (turkeys); [4]): 24.3 pounds
bird mortality (poults (turkeys); [5]): 0.7%
birds condemned at the poultry processing facility (poults (turkeys); [5]): 1.4%
weight gain for the birds (poults (turkeys); [5]): 23.9 pounds
other avian diseases in the animal bedding material (Other avian diseases): not in the TCM test house
weight gains of the chickens versus control poultry house (chickens; Example 7: 100 ppm TCM on used bedding vs control house treated with alum): insignificant difference
average weight (chickens; [6]): 4 pounds
bird mortality rate (chickens; [6]): 1.1%
birds condemned at the poultry processing facility (chickens; [6]): 0.04%
e.Coli in the animal bedding material (e.Coli): no e.Coli or salmonella

Reference: US6749804B2, “Process for treating animal habitats” (H & S Chemical Company, Inc., priority 2000, dated 2004)
